Measured values as given in patent US11629171B2, “Beta-hairpin peptidomimetics” (POLYPHOR AG, priority 2017, dated 2023).
Values after ≈ are worked out from the molar mass of the structure shown. Where a SMILES comes first, the peptide text is derived from it. Bridges are numbered along the chain shown (N, C = ends). Roman numbers before positions name the chains, in order. [ ]: non-standard residue; d: D form. The star is where a group is joined. Leu(3R-OH) = CC(C)[C@@H](O)[C@H](N)C(=O)O; Tle = CC(C)(C)[C@H](N)C(=O)O; Hiv = CC(C)[C@H](O)C(=O)O; dDab = NCC[C@@H](N)C(=O)O; hSer = N[C@@H](CCO)C(=O)O; NHCH(CH2OH)2 = OCC(CO)N*; Nle = CCCC[C@H](N)C(=O)O; Dab = NCC[C@H](N)C(=O)O; Dap = NC[C@H](N)C(=O)O

Assays:
Assay type in all cases: cell-based
[1] = system: Klebsiella pneumoniae SSI #3010; conditions: SSI #3010
How it was run: (§1)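 CLSI broth microdilution in cation-adjusted Mueller-Hinton II broth with 0.002% polysorbate 80 (final), inoculum appr. 10^6 CFU/mL, peptides in serial two-fold dilutions. MIC (μg/mL) is the lowest concentration without visible growth after 18-20 h at 35° C.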

[2] = system: Acinetobacter baumannii 872842; conditions: 872842
How it was run: as §1

[3] = system: Escherichia coli ATCC 25922; conditions: ATCC 25922
How it was run: as §1

Escherichia coli 926415 = conditions: 926415
How it was run: as §1

[4] = system: Enterobacter cloacae 848840; conditions: 848840
How it was run: as §1

[5] = system: Acinetobacter baumannii DSM 30008; conditions: DSM 30008
How it was run: as §1

[6] = system: Pseudomonas aeruginosa ATCC 27853; conditions: ATCC 27853
How it was run: as §1

[7] = system: Klebsiella pneumoniae 968733; conditions: 968733
How it was run: as §1

[8] = system: human red blood cells (hRBC); experiment: Hemolysis; conditions: red cells of human, 1 h, 200
How it was run: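 Washed fresh human RBC (20% v/v) incubated with peptide at 200 μg/mL for 1 h at 37° C with shaking. Supernatant OD540 measured after dilution, blank corrected; percent hemolysis = OD540 peptide / OD540 of 2% Triton X-100 lysis × 100, PBS with 10% water as 0%.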

SMILES | MIC [1] | MIC [2] | MIC [3] | MIC (Escherichia coli 926415) | MIC [4] | MIC [5] | MIC [6] | MIC [7] | Klebsiella pneumoniae SSI #3010 MIC [1] | Escherichia coli ATCC 25922 MIC [3] | Acinetobacter baumannii DSM 30008 MIC [5] | Pseudomonas aeruginosa ATCC 27853 MIC [6] | Hemolysis at 200 μg/mL [8]
CC(=O)N[C@H](C(=O)N[C@H]1CSSC[C@@H](C(=O)N[C@@H](CO)C(N)=O)NC(=O)[C@H](C(C)(C)C)NC(=O)[C@H](CO)NC(=O)[C@H](Cc2c[nH]c3ccccc23)NC(=O)[C@H](CCN)NC(=O)[C@@H](CCN)NC(=O)[C@H](CCC(=O)N[C@@H](CCN)C(=O)N[C@H](C(=O)N[C@@H](CN)C(=O)N[C@H]2CCNC(=O)[C@H]([C@@H](C)O)NC(=O)[C@H](CCN)NC(=O)[C@H](CCN)NC(=O)[C@H](CC(C)C)NC(=O)[C@@H](CC(C)C)NC(=O)[C@H](CCN)NC2=O)[C@@H](C)O)NC(=O)[C@H](CO)NC(=O)[C@H](Cc2ccc(O)cc2)NC1=O)C(C)C [Ex. 133] (I: Ac-VCYSE[dDab][Dab]WS[Tle]CS-NH2 / II: [Dab]T[Dap][Dab][Dab][dL]L[Dab][Dab]T; disulfide I:2-I:11; amide I:5-II:N; lactam II:4-II:C) | 0.125 µg/mL (≈ 0.0518 µM) | 0.03125 µg/mL (≈ 0.013 µM) | 0.03125 µg/mL (≈ 0.013 µM) | 0.0625 µg/mL (≈ 0.0259 µM) | 0.25 µg/mL (≈ 0.104 µM) | 0.0625 µg/mL (≈ 0.0259 µM) | 0.25 µg/mL (≈ 0.104 µM) | 0.125 µg/mL (≈ 0.0518 µM) |  |  |  |  | 2%
CCCC[C@H](NC(C)=O)C(=O)N[C@H](C(=O)N[C@@H](Cc1ccc(O)cc1)C(=O)N[C@H]1CSSC[C@@H](C(=O)N[C@H](C(=O)N[C@H](C(=O)N[C@H](C(N)=O)[C@@H](C)O)[C@@H](C)O)[C@@H](C)CC)NC(=O)[C@H](Cc2c[nH]c3ccccc23)NC(=O)[C@H](CO)NC(=O)[C@@H](CCN)NC(=O)[C@H](CCC(=O)N[C@@H](CCN)C(=O)N[C@H](C(=O)N[C@@H](CN)C(=O)N[C@H]2CCNC(=O)[C@H]([C@@H](C)O)NC(=O)[C@H](CCN)NC(=O)[C@H](CCN)NC(=O)[C@H]([C@H](O)C(C)C)NC(=O)[C@@H](CC(C)C)NC(=O)[C@H](CCN)NC2=O)[C@@H](C)O)NC1=O)[C@@H](C)O [Ex. 223] (I: Ac-[Nle]TYCE[dDab]SWCITT-NH2 / II: [Dab]T[Dap][Dab][Dab][dL][Leu(3R-OH)][Dab][Dab]T; disulfide I:4-I:9; amide I:5-II:N; lactam II:4-II:C) | 0.0625 µg/mL (≈ 0.0253 µM) | 0.03125 µg/mL (≈ 0.0126 µM) | 0.03125 µg/mL (≈ 0.0126 µM) | 0.125 µg/mL (≈ 0.0506 µM) | 0.0625 µg/mL (≈ 0.0253 µM) | 0.03125 µg/mL (≈ 0.0126 µM) | 0.125 µg/mL (≈ 0.0506 µM) | 0.25 µg/mL (≈ 0.101 µM) |  |  |  |  | <1%
CC(=O)N[C@H](C(=O)N[C@H]1CSSC[C@@H](C(=O)N[C@@H](CO)C(N)=O)NC(=O)[C@H](C(C)C)NC(=O)[C@H](CO)NC(=O)[C@H](Cc2c[nH]c3ccccc23)NC(=O)[C@H](CCN)NC(=O)[C@@H](CCN)NC(=O)[C@H](CCC(=O)N[C@@H](CCN)C(=O)N[C@H](C(=O)N[C@@H](CN)C(=O)N[C@H]2CCNC(=O)[C@H]([C@@H](C)O)NC(=O)[C@H](CCN)NC(=O)[C@H](CCN)NC(=O)[C@H](CC(C)C)NC(=O)[C@@H](CC(C)C)NC(=O)[C@H](CCN)NC2=O)[C@@H](C)O)NC(=O)[C@H](CO)NC(=O)[C@H](Cc2ccc(O)cc2)NC1=O)C(C)C [Ex. 251] (I: Ac-VCYSE[dDab][Dab]WSVCS-NH2 / II: [Dab]T[Dap][Dab][Dab][dL]L[Dab][Dab]T; disulfide I:2-I:11; amide I:5-II:N; lactam II:4-II:C) | 0.03125 µg/mL (≈ 0.013 µM) | 0.03125 µg/mL (≈ 0.013 µM) | 0.03125 µg/mL (≈ 0.013 µM) | 0.125 µg/mL (≈ 0.0521 µM) | 0.125 µg/mL (≈ 0.0521 µM) | 0.01562 µg/mL (≈ 0.00651 µM) | 0.0625 µg/mL (≈ 0.0261 µM) | 0.0625 µg/mL (≈ 0.0261 µM) |  |  |  |  | 1%
CC(C)C[C@@H]1NC(=O)[C@@H](CC(C)C)NC(=O)[C@H](CCN)NC(=O)[C@@H](NC(=O)[C@H](CCN)NC(=O)[C@@H](NC(=O)[C@H](CCN)NC(=O)CC[C@@H]2NC(=O)[C@H](CCN)NC(=O)[C@H](Cc3ccc(O)cc3)NC(=O)[C@@H](NC(=O)[C@@H](O)C(C)C)CSSC[C@@H](C(=O)NC(CO)CO)NC(=O)[C@H](C(C)(C)C)NC(=O)[C@H](CO)NC(=O)[C@H](Cc3c[nH]c4ccccc34)NC(=O)[C@H](CCO)NC(=O)[C@@H](CCN)NC2=O)[C@@H](C)O)CCNC(=O)[C@H]([C@@H](C)O)NC(=O)[C@H](CCN)NC(=O)[C@H](CCN)NC1=O [Ex. 95] (I: H-[Hiv]CY[Dab]E[dDab][hSer]WS[Tle]C-{NHCH(CH2OH)2} / II: [Dab]T[Dab][Dab][Dab][dL]L[Dab][Dab]T; disulfide I:2-I:11; amide I:5-II:N; lactam II:4-II:C) | 0.125 µg/mL (≈ 0.0524 µM) | 0.125 µg/mL (≈ 0.0524 µM) | 0.03125 µg/mL (≈ 0.0131 µM) | 0.125 µg/mL (≈ 0.0524 µM) | 4 µg/mL (≈ 1.68 µM) | 0.0625 µg/mL (≈ 0.0262 µM) | 0.125 µg/mL (≈ 0.0524 µM) | 0.125 µg/mL (≈ 0.0524 µM) |  |  |  |  | <1%

Further lines, with some results ahead:

MIC [1] | MIC [2] | MIC [3] | MIC (Escherichia coli 926415) | MIC [4] | MIC [5] | MIC [6] | MIC [7] | Klebsiella pneumoniae SSI #3010 MIC [1] | Escherichia coli ATCC 25922 MIC [3] | Acinetobacter baumannii DSM 30008 MIC [5] | Pseudomonas aeruginosa ATCC 27853 MIC [6] | SMILES | Hemolysis at 200 μg/mL [8]
0.03125 µg/mL (≈ 0.0129 µM) | 0.0625 µg/mL (≈ 0.0258 µM) | 0.0625 µg/mL (≈ 0.0258 µM) | 0.125 µg/mL (≈ 0.0515 µM) | 0.125 µg/mL (≈ 0.0515 µM) | 0.0625 µg/mL (≈ 0.0258 µM) | 0.0625 µg/mL (≈ 0.0258 µM) | 0.125 µg/mL (≈ 0.0515 µM) |  |  |  |  | CC(=O)N[C@H](C(=O)N[C@H]1CSSC[C@@H](C(=O)N[C@@H](CO)C(N)=O)NC(=O)[C@H](C(C)(C)C)NC(=O)[C@H](CO)NC(=O)[C@H](Cc2c[nH]c3ccccc23)NC(=O)[C@H](CCN)NC(=O)[C@@H](CCN)NC(=O)[C@H](CCC(=O)N[C@@H](CCN)C(=O)N[C@H](C(=O)N[C@@H](CN)C(=O)N[C@H]2CCNC(=O)[C@H]([C@@H](C)O)NC(=O)[C@H](CCN)NC(=O)[C@H](CCN)NC(=O)[C@H](CC(C)C)NC(=O)[C@@H](CC(C)C)NC(=O)[C@H](CCN)NC2=O)[C@@H](C)O)NC(=O)[C@H]([C@@H](C)O)NC(=O)[C@H](Cc2ccc(O)cc2)NC1=O)C(C)C [Ex. 252] (I: Ac-VCYTE[dDab][Dab]WS[Tle]CS-NH2 / II: [Dab]T[Dap][Dab][Dab][dL]L[Dab][Dab]T; disulfide I:2-I:11; amide I:5-II:N; lactam II:4-II:C) | 2%
 | 0.5 µg/mL (≈ 0.21 µM) |  | 0.5 µg/mL (≈ 0.21 µM) | 0.5 µg/mL (≈ 0.21 µM) |  |  | 2 µg/mL (≈ 0.842 µM) | 0.0625 µg/mL | 0.0625 µg/mL | 0.125 µg/mL | 0.125 µg/mL | CC(=O)N[C@H](C(=O)N[C@H]1CCN(C)C(=O)C[C@@H](C(=O)N[C@@H](CO)C(N)=O)NC(=O)[C@H](C(C)C)NC(=O)[C@H](CO)NC(=O)[C@H](Cc2c[nH]c3ccccc23)NC(=O)CNC(=O)[C@@H](CCN)NC(=O)[C@H](CCC(=O)N[C@@H](CCN)C(=O)N[C@H](C(=O)N[C@@H](CN)C(=O)N[C@H]2CCNC(=O)[C@H]([C@@H](C)O)NC(=O)[C@H](CCN)NC(=O)[C@H](CCN)NC(=O)[C@H](CC(C)C)NC(=O)[C@@H](CC(C)C)NC(=O)[C@H](CCN)NC2=O)[C@@H](C)O)NC(=O)[C@H](CCN)NC(=O)[C@H](Cc2ccc(O)cc2)NC1=O)C(C)C [Ex. 348] | <1%
 | 0.25 µg/mL (≈ 0.108 µM) |  | 0.25 µg/mL (≈ 0.108 µM) | 0.5 µg/mL (≈ 0.215 µM) |  |  | 1 µg/mL (≈ 0.431 µM) | 0.0625 µg/mL | 0.0625 µg/mL | 0.125 µg/mL | 0.125 µg/mL | CC(C)C[C@@H]1NC(=O)[C@@H](CC(C)C)NC(=O)[C@H](CCN)NC(=O)[C@@H](NC(=O)[C@H](CN)NC(=O)[C@@H](NC(=O)[C@H](CCN)NC(=O)CC[C@@H]2NC(=O)[C@H](CCN)NC(=O)[C@H](Cc3ccc(O)cc3)NC(=O)[C@@H](NC(=O)[C@@H](O)C(C)C)CCNC(=O)C[C@@H](C(=O)N[C@@H](CO)C(N)=O)NC(=O)[C@H](C(C)C)NC(=O)[C@H](CO)NC(=O)[C@H](Cc3c[nH]c4ccccc34)NC(=O)CNC(=O)[C@@H](CCN)NC2=O)[C@@H](C)O)CCNC(=O)[C@H]([C@@H](C)O)NC(=O)[C@H](CCN)NC(=O)[C@H](CCN)NC1=O [Ex. 347] (I: H-[Hiv][Dab]Y[Dab]E[dDab]GWSVDS-NH2 / II: [Dab]T[Dap][Dab][Dab][dL]L[Dab][Dab]T; lactam I:2-I:11, II:4-II:C; amide I:5-II:N) | <1%
